Data published in PMC8746970, “Determination of the Peptide AWRK6 in Rat Plasma by Liquid Chromatography-Tandem Mass Spectrometry (LC-MS/MS) and Its Application to Pharmacokinetics” (Molecules, 2021).
Like-named read-outs stand apart in the source and are kept apart here. No end group written: not given here.

Assay: Pharmacokinetic study of AWRK6 in rats after intraperitoneal or intravenous injection, plasma LC-MS/MS
Type: in vivo, rat
Conditions: for AUC(0-inf) / Cmax / Tmax / CL/F / MRT / Vd/F / half-life / AUC(0-t) / bioavailability: rat; for CL/F: read-out: CLz/F (converted); for MRT: read-out: MRT(0–t); for Vd/F: read-out: Vz/F; for half-life: read-out: t1/2z (converted); for bioavailability: from AUC, read-out: F (absolute bioavailability)
Description: The samples were analyzed on a LC-MS/MS system consisting of an Agilent 1290 Infinity II UHPLC System coupled with an Agilent 6460 Triple Quadrupole Mass Spectrometer with an electrospray ionisation source (ESI). The Agilent MassHunter Workstation Qualitative Analysis B.06.00 (Agilent Technologies, Santa Clara, CA, USA) software was used. Chromatographic separation was performed on a Supersil ODS2 column (4.6 mm × 250 mm, 5 μm, Dalian Elite Analytical Instruments, Dalian, China). The separation conditions were 30 °C by using a FA-ACN (0.1:99.9, v/v, A) and FA-water (0.1:99.9, v/v, B) solutions at a flow rate of 0.5 mL/min. The sample injection volume was 20 μL and the autosampler was kept at 4 °C. The initial eluent A-B (20:80, v/v) was changed to A-B (30:70, v/v) in 4 min and subsequently changed to A-B (90:10, v/v) in the next 3 min in a linear gradient form and maintained at this ratio for another 1 min. PMB was used as the IS. MS analysis was carried out in the multiple reaction monitoring (MRM) mode with following operation parameters: capillary voltage, 3.5 kV; gas temperature, 325 °C; nebulizer gas pressure, 35 psi; sheath gas, 11 L/min, 350 °C; fragmentor voltages, 155 V for AWRK6 and 75 V for IS; collision energy (CE), 80 eV for AWRK6 and 40 eV for IS; precursor-to-product ion transition, m/z: 533.3→84.1 for AWRK6 and m/z: 402.1→101.1 for IS.
The AWRK6 and IS were dissolved in water at 1.0 mg/mL for stock solution. The AWRK6 calibration standards at 0.05, 0.1, 0.5, 1, 2, 5, and 10 μg/mL were prepared by mixing 50 μL of working solution and 100 μL of blank plasma individually. QC samples of AWRK6 at 0.1, 0.5, and 5 μg/mL were prepared by the same method. The thawed plasma samples (100 μL) were mixed with 50 μL water (or QC), 50 μL IS (1 μg/mL), and 20 μL FA-water (25:75, v/v). A combination of plasma precipitation and liquid–liquid extraction was applied for the extraction of AWRK6 in samples. After adding 200 μL methanol and 100 μL dichloromethane, the mixtures were vortexed for 30 s and centrifuged at 14,000 g for 10 min. The supernatant was filtered by 0.22 μm membrane for LC-MS/MS analysis.
SPF-grade male Sprague Dawley rats (280–320 g, 8 weeks old) were purchased from Liaoning Changsheng Biotechology (Liaoning, China). The rats were housed under a controlled environment (temperature: 25 ± 2 °C; relative humidity: 55 ± 10%; alternating natural light/dark cycles) with free access to food and water unless otherwise noted. The study was approved by the Laboratory Animal Welfare and Ethical Review Board of China Medical University (CMU2019089, 8 March 2019). According to the previous study, the rats was administrated with AWRK6 dissolved in saline intraperitoneally at 2.35, 4.7, and 9.4 mg/kg bodyweight and intravenously at 4.7 mg/kg after being fasted for 12 h. The intravenous doing was administered via the tail vein of the rats. Blood samples were collected from orbital venous plexus at 0.083, 0.167, 0.25, 0.5, 1, 1.5, 2, 3, 4, 6, 8, and 10 h using heparin tubes after administration, followed by centrifugation at 4000 g for 10 min at 4 °C and storage at −80 °C. The obtained data were analyzed using DAS 2.0 software (Anhui Provincial Center for Drug Clinical Evaluation). The absolute bioavailability of AWRK6 for intraperitoneal administration was calculated by the following formula:(1) F=AUCi.p.×Di.v./Di.p.×AUCi.v.×100%

[1] = male Sprague Dawley rats, single i.v. 4.700 mg/kg (tail vein), plasma, LC-MS/MS, mean ± SD, n = 6
[2] = ip, 2.35 mg/kg, male Sprague Dawley rats, single i.p. 2.350 mg/kg, plasma, LC-MS/MS, mean ± SD, n = 6
[3] = ip, 4.7 mg/kg, male Sprague Dawley rats, single i.p. 4.700 mg/kg, plasma, LC-MS/MS, mean ± SD, n = 6
[4] = ip, 9.4 mg/kg, male Sprague Dawley rats, single i.p. 9.400 mg/kg, plasma, LC-MS/MS, mean ± SD, n = 6
[5] = iv, 4.7 mg/kg, male Sprague Dawley rats, single i.v. 4.700 mg/kg (tail vein), plasma, LC-MS/MS, mean ± SD, n = 6
[6] = rats, two-compartment model, weight coefficient of 1, DAS 2.0

SWVGKHGKKFGLKKHKKH-NH2 (C-terminus assumed) [AWRK6]
VRT(0–t) (male Sprague Dawley rats, single i.p. 2.350 mg/kg, plasma, LC-MS/MS, mean ± SD, n = 6): 2.549 ± 1.480 h^2 | VRT(0–t) (male Sprague Dawley rats, single i.p. 4.700 mg/kg, plasma, LC-MS/MS, mean ± SD, n = 6): 3.859 ± 0.904 h^2 | VRT(0–t) (male Sprague Dawley rats, single i.p. 9.400 mg/kg, plasma, LC-MS/MS, mean ± SD, n = 6): 4.366 ± 1.439 h^2 | CLz/F [1]: 28.32 ± 3.65 mL/min/kg | Vz/F [1]: 4.884 ± 1.736 L/kg | AUC(0-inf) [2]: 851 ± 221 ng·h/mL | Cmax [2]: 217 ± 10 ng/mL | Tmax [2]: 1.17 ± 0.258 h | CL/F [2]: 48 mL/min/kg | MRT [2]: 2.26 ± 0.488 h | Vd/F [2]: 10.9 ± 3.96 L/kg | half-life [2]: 2.95 ± 2.05 h | AUC(0-inf) [3]: 1590 ± 275 ng·h/mL | AUC(0-t) [3]: 1360 ± 176 ng·h/mL | Cmax [3]: 454 ± 48 ng/mL | Tmax [3]: 1.25 ± 0.274 h | CL/F [3]: 50.6 mL/min/kg | MRT [3]: 2.49 ± 0.227 h | Vd/F [3]: 12.3 ± 4.85 L/kg | half-life [3]: 2.94 ± 1.4 h | AUC(0-inf) [4]: 2910 ± 356 ng·h/mL | AUC(0-t) [4]: 2630 ± 236 ng·h/mL | Cmax [4]: 888 ± 46 ng/mL | Tmax [4]: 1.21 ± 0.217 h | CL/F [4]: 54.4 mL/min/kg | MRT [4]: 2.52 ± 0.292 h | Vd/F [4]: 12.7 ± 3.37 L/kg | half-life [4]: 2.78 ± 1.02 h | AUC(0-inf) [5]: 2800 ± 333 ng·h/mL | AUC(0-t) [5]: 2600 ± 277 ng·h/mL | Cmax [5]: 2130 ± 174 ng/mL | MRT [5]: 1.73 ± 0.261 h | half-life [5]: 1.98 ± 0.583 h | bioavailability (plasma, ip, 2.35 mg/kg, male Sprague Dawley rats, i.p. 2.350 mg/kg versus i.v. 4.700 mg/kg): 48.8% | bioavailability (plasma, ip, 4.7 mg/kg, male Sprague Dawley rats, i.p. 4.700 mg/kg versus i.v. 4.700 mg/kg): 52.5% | bioavailability (plasma, ip, 9.4 mg/kg, male Sprague Dawley rats, i.p. 9.400 mg/kg versus i.v. 4.700 mg/kg): 50.6% | time after which plasma concentration was below the LLOQ (rats, after intraperitoneal injection, LLOQ 0.050 μg/mL): ~10 h | time at which AWRK6 in plasma was cleared (rats, after intravenous injection 4.7 mg/kg): about 10 h | time at which AWRK6 concentrations in rat plasma peaked (rats, intraperitoneal injections at 2.35, 4.7 and 9.4 mg/kg bodyweight): about 1.2 h | transport rate constant K12 [6]: 2.55 h⁻¹ | transport rate constant K21 [6]: 1.67 h⁻¹
